Measurements from ChEMBL document CHEMBL5150060 (J Med Chem, 2022).
Activity calls are given as the source filed them. No cut-off for these calls is given here.

Legend:
Histone deacetylase 1 = Histone deacetylase 1 (Homo sapiens, UniProt Q13547); assay: Inhibition of recombinant human HDAC1 using p53 (Ac-RHKK(Acetyl)-AMC) as substrate preincubated for 5 mins followed by substrate addition and measured after 90 mins by fluorescence based analysis
[1] = Toxicity in C57BL/6 mouse assessed as change in heart weight at 5 to 10 mg/kg, ip administered 5 days per week for 2 weeks by H and E staining based assay; assay type: organism-based; conditions: in vivo, 336 h, dose 5-10 mg/kg
[2] = target: T1, Histone deacetylase 8 (Homo sapiens) (UniProt Q9BY41); assay: Inhibition of HDAC8 in human Jurkat T cells assessed as upregulation of KLRG expression at 10 uM after 6 to 12 hrs by RT-qPCR analysis; assay type: cell-based; conditions: time 6-12 hrs
T1 sequence (whole entry): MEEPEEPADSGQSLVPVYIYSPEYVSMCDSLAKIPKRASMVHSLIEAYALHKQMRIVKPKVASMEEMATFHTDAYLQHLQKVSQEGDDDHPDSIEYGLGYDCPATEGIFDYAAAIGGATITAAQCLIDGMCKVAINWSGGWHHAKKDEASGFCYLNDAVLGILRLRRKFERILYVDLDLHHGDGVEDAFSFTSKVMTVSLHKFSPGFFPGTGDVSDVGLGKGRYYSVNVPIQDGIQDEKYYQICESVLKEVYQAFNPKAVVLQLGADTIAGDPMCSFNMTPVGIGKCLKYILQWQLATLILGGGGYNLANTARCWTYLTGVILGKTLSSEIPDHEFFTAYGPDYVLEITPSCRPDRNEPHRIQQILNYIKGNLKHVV

Mus musculus = assay: Immuno-modulatory activity in C57BL/6 mouse assessed as increase in IL2 expression in CD4+ cells at 10 mg/kg, ip administered 5 days per week for 2 weeks by RT-qPCR analysis; assay type: functional, organism-based
[3] = target: T1, Histone deacetylase 8 (Homo sapiens); assay: Inhibition of HDAC8 in human Jurkat T cells assessed as upregulation of […] expression at 10 uM after 6 to 12 hrs by RT-qPCR analysis; assay type: cell-based; conditions: time 6-12 hrs
[4] = Toxicity in C57BL/6 mouse assessed as change in spleen weight at 5 to 10 mg/kg, ip administered 5 days per week for 2 weeks by H and E staining based assay; assay type: organism-based; conditions: in vivo, 336 h, dose 5-10 mg/kg
[5] = target: T1, Histone deacetylase 8 (Homo sapiens); assay: Inhibition of HDAC8 in human Jurkat T cells assessed as upregulation of IL10 expression at 10 uM after 6 to 12 hrs by RT-qPCR analysis; assay type: cell-based; conditions: time 6-12 hrs
Histone deacetylase 3 = Histone deacetylase 3 (Homo sapiens, UniProt O15379); assay: Inhibition of recombinant human HDAC3 using p53 (Ac-RHKK(Acetyl)-AMC) as substrate preincubated for 5 mins followed by substrate addition and measured after 30 mins by fluorescence based analysis
[6] = target: T2, Protein deacetylase HDAC6 (Mus musculus) (UniProt Q9Z2V5); assay: Inhibition of HDAC6 in mouse spleen CD4+ T- lymphocytes assessed as increase in SMC3 acetylation level at 5 to 10 uM after 6 hrs by Western blot analysis; assay type: cell-based; conditions: CD4+ve Th, dose 5-10 µM
T2 sequence (whole entry): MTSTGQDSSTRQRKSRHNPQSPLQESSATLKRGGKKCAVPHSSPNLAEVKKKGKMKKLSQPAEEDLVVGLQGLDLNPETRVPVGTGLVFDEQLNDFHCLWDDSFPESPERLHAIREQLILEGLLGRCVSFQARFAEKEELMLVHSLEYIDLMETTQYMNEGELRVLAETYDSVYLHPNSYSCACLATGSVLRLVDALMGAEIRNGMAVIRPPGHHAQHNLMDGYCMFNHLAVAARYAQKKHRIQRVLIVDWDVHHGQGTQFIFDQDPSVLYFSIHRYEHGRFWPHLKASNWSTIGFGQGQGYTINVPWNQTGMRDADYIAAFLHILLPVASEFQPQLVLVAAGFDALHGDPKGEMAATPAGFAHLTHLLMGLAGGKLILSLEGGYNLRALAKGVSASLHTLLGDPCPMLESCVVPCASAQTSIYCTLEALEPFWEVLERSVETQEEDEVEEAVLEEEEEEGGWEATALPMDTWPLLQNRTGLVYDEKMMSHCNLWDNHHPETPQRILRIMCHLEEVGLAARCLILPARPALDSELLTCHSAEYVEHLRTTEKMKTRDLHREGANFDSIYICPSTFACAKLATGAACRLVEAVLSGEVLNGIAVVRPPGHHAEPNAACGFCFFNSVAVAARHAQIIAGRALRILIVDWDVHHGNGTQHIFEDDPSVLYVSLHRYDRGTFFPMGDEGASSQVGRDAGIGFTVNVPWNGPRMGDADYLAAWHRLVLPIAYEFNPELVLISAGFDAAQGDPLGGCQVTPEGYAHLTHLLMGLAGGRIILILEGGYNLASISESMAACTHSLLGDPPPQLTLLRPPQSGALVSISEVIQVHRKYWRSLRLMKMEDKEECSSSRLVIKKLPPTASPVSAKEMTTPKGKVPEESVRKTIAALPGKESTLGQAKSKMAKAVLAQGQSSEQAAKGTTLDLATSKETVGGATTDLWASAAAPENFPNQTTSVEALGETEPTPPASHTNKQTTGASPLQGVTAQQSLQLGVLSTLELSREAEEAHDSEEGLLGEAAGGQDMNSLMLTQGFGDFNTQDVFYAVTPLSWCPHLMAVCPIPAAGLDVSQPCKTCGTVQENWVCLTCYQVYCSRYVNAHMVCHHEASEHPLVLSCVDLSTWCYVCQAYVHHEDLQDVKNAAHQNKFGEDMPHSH

[7] = target: T1, Histone deacetylase 8 (Homo sapiens); assay: Inhibition of HDAC8 in human Jurkat T cells assessed as upregulation of GATA3 expression after 6 hrs by RT-qPCR analysis; assay type: cell-based; conditions: dose 0.1-10 µM, DDE = dose-dependent effect
[8] = Stability of compound in DMEM/DMSO/acetonitrile at pH 7.4 measured after 12 hrs by HPLC analysis; assay type: physicochemical; conditions: read-out: Stability
[9] = Stability of compound in DMEM/DMSO/acetonitrile at pH 7.4 measured after 48 hrs by HPLC analysis; assay type: physicochemical; conditions: read-out: Stability
[10] = target: T1, Histone deacetylase 8 (Homo sapiens); assay: Inhibition of HDAC8 in human Jurkat T cells assessed as upregulation of IL-7R expression at 10 uM after 6 to 12 hrs by RT-qPCR analysis; assay type: cell-based; conditions: time 6-12 hrs
[11] = target: T2, Protein deacetylase HDAC6 (Mus musculus); assay: Inhibition of HDAC6 in mouse spleen CD4+ T- lymphocytes assessed as increase in H3K27 acetylation level at 5 to 10 uM after 6 hrs by Western blot analysis; assay type: cell-based; conditions: CD4+ve Th, dose 5-10 µM
[12] = Toxicity in C57BL/6 mouse assessed as change in body weight at 5 to 10 mg/kg, ip administered 5 days per week for 2 weeks; assay type: organism-based; conditions: in vivo, 336 h, dose 5-10 mg/kg
[13] = Toxicity in C57BL/6 mouse assessed as change in intestine weight at 5 to 10 mg/kg, ip administered 5 days per week for 2 weeks by H and E staining based assay; assay type: organism-based; conditions: in vivo, 336 h, dose 5-10 mg/kg
[14] = target: T1, Histone deacetylase 8 (Homo sapiens); assay: Inhibition of HDAC8 in human Jurkat T cells assessed as upregulation of KLRG1 expression after 6 hrs by RT-qPCR analysis; assay type: cell-based; conditions: dose 0.1-10 µM, DDE = dose-dependent effect
[15] = target: T1, Histone deacetylase 8 (Homo sapiens); assay: Inhibition of HDAC8 in human Jurkat T cells assessed as upregulation of BCL6 expression after 6 hrs by RT-qPCR analysis; assay type: cell-based; conditions: dose 0.1-10 µM, DDE = dose-dependent effect

Sequence of Histone deacetylase 1 (Q13547 whole entry): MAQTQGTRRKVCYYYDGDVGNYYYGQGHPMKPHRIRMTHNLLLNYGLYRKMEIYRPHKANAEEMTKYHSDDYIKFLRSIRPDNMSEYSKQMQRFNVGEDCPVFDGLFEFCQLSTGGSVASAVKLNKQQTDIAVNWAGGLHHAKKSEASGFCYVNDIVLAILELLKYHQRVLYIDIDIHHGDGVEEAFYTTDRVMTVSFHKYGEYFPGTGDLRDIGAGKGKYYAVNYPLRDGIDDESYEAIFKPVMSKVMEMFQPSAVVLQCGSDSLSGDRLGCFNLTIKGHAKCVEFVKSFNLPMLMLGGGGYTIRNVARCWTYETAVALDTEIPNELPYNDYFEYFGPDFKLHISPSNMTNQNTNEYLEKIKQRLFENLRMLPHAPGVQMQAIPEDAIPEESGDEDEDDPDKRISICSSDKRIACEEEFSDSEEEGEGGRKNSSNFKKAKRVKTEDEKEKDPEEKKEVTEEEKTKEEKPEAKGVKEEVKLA
Sequence of Histone deacetylase 3 (O15379 whole entry): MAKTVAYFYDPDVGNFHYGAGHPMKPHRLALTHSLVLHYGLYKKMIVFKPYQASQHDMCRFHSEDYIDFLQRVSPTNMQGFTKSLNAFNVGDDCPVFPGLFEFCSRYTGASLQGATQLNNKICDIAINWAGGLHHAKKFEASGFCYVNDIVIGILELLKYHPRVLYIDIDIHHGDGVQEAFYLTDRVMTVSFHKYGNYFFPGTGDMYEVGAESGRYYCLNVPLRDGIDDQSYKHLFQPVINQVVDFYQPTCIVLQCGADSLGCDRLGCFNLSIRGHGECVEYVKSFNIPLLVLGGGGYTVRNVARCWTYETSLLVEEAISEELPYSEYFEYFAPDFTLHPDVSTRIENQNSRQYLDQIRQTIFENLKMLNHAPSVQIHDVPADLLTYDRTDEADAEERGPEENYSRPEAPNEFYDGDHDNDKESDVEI

Structure (SMILES): CCCCCCNNC(=O)c1ccc(-c2ccc(CNC(C)=O)cc2)cc1
- IC50 (Histone deacetylase 1): 1.8 µM
- Activity [1]: Non-Toxic
- inhibition [2]: Active
- Activity (Mus musculus): Active
- inhibition [3]: Active
- Activity [4]: Non-Toxic
- inhibition [5]: Active
- IC50 (Histone deacetylase 3): > 20 µM
- inhibition [6]: Active
- inhibition [7]: Dde
- remaining at 12 h [8]: 104%
- remaining at 48 h [9]: 104%
- inhibition [10]: Active
- inhibition [11]: Active
- Activity [12]: Non-Toxic
- Activity [13]: Non-Toxic
- inhibition [14]: Dde
- inhibition [15]: Dde
